Some test systems named below: Malme-3M; A498; HOP-92; HT-29; M14; CCRF-CEM; RXF 393; LOX IMVI; UACC-257; SF-268; COLO 205; SK-MEL-5; NCI-H23; 786-0; SN12C; ACHN; UACC-62; HL-60; A549; NCI-H460.
What all share (experiment): DTP human tumour cell line panel, 48 h

Broadly, the GI50 is the concentration giving 50% growth inhibition.

Structures are written as SMILES.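 Dose response: 5 concentrations. Exposure: 48 h. Format: 96-well plates. Endpoint: linear interpolation; highest concentration if not reached. GI50 = concentration required for 50% inhibition of growth.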 The source made the active and inactive calls. Cut-off read from the data, not from the text of the source: active = GI50 up to about 1.1 µM and inactive = higher. Where only a bound is given, the exact number is not on record here.

Take `CN1C(=O)N(C)C2(CCN(CC(CC3OCCO3)c3ccc(F)cc3)CC2)C1=O` (stereo unspecified): the GI50 with Malme-3M, in the assay with A498, in the assay on HOP-92, in the assay with HT-29, in the assay on M14 and in the assay with CCRF-CEM was > 100 µM (inactive) throughout. In addition, the GI50 in the assay with RXF 393, in the assay on LOX IMVI, in the assay on UACC-257, in the assay with SF-268, in the assay on COLO 205 and in the assay on SK-MEL-5 was > 100 µM (inactive) each time. Besides, the GI50 in the assay with NCI-H23, with 786-0, with SN12C, in the assay with ACHN, in the assay with UACC-62 and with HL-60 was > 100 µM (inactive) each time. In the assay with A549, the GI50 was > 100 µM (inactive).
With `Cc1c2ccncc2c(C)c2c1[nH]c1ccc(OCCN(C)C)cc12`, the GI50 in the assay with Malme-3M was 1.16 µM (inactive); in the assay with A498, 1.19 µM (inactive); with NCI-H460, 0.0308 µM (active); in the assay with HOP-92, 0.583 µM (active); with HT-29, 0.171 µM (active); in the assay on CCRF-CEM, 0.024 µM (active). The 50% growth inhibitory concentration (GI50) in the assay on RXF 393 was 0.265 µM (active); with LOX IMVI it was 0.063 µM (active); in the assay on UACC-257, 0.92 µM (active); with SF-268, 0.151 µM (active); in the assay with COLO 205, 0.357 µM (active); in the assay with SK-MEL-5 it was 1.35 µM (inactive). Further, the GI50 in the assay with NCI-H23 was 0.416 µM (active); with SN12C, 0.309 µM (active); in the assay on UACC-62, 0.729 µM (active); with HL-60, 0.136 µM (active); in the assay with A549 it was 0.198 µM (active).
With `COC1(O)c2cccc(Cl)c2C(=O)N1C1(C(N)=O)CCCCC1` (stereo unspecified), the GI50 is > 100 µM (inactive) in the assay on Malme-3M; > 100 µM (inactive) in the assay with A498; > 100 µM (inactive) with NCI-H460; 24.4 µM (inactive) in the assay on HOP-92; > 43.7 µM (inactive) in the assay with HT-29; > 100 µM (inactive) in the assay with CCRF-CEM. The GI50 with RXF 393, with LOX IMVI, with UACC-257, in the assay with SF-268, in the assay on COLO 205 and with SK-MEL-5 was > 100 µM (inactive) in each case. The GI50 is > 37.5 µM (inactive) in the assay with NCI-H23; > 100 µM (inactive) with SN12C; > 100 µM (inactive) in the assay with UACC-62; > 100 µM (inactive) in the assay with HL-60; > 100 µM (inactive) in the assay on A549.
Consider `CCN1CCC(O)(c2ccc(O)cc2)C(C(=O)c2ccc(O)cc2)C1` (stereo unspecified), for which the GI50 was 20.5 µM (inactive) in the assay with Malme-3M; > 10 µM (inactive) in the assay on A498; > 100 µM (inactive) in the assay with NCI-H460; 19.7 µM (inactive) in the assay with HOP-92; 25.8 µM (inactive) in the assay on HT-29; 19.5 µM (inactive) in the assay with M14. The GI50 in the assay on CCRF-CEM was 11.5 µM (inactive); in the assay with RXF 393, 16.6 µM (inactive); in the assay with LOX IMVI, 12.5 µM (inactive); with UACC-257 it was 13.7 µM (inactive); with SF-268, 39.2 µM (inactive); in the assay with COLO 205, 4.45 µM (inactive). Besides, the GI50 in the assay with SK-MEL-5 was 10.8 µM (inactive); with NCI-H23, 20.3 µM (inactive); with SN12C, 22.3 µM (inactive); in the assay with ACHN it was 19.8 µM (inactive); with UACC-62, 16.4 µM (inactive); with HL-60 it was 31.7 µM (inactive).

The record behind these values is ChEMBL document CHEMBL1201862, “PubChem BioAssay data set” (2004).
